{"source": "patent US20210100905A1", "about": "“APPLICATION OF COMPOUND OR TRADITIONAL CHINESE MEDICINE EXTRACT IN PREPARATION OF NUCLEIC ACID DELIVERY AGENT, AND RELATED PRODUCTS” (INSTITUTE OF BASIC MEDICAL SCIENCES CHINESE ACADEMY OF …, priority 2018, published 2021)", "key": {"[1]": {"tested_on": "A549 cells", "experiment": "Confocal fluorescence microscopy of nucleic acid delivered by lipid", "assay_type": "cell-based, human", "conditions": "boiling method, 4 μl lipid, 6 hours co-incubation", "procedure": "Experimental materials: A549 cells (purchased from the Cell Center of the Chinese Academy of Medical Sciences), PGY-sRNA-6-Cy3 (purchased from Ribobio Biotechnology Co., Ltd.), lipid No. 41, Zeiss LSM780 (purchased from Zeiss, Germany), Alexa Fluor® 488 phalloidin (purchased from Invitrogen, USA), DAPI (purchased from Invitrogen, USA), paraformaldehyde (purchased from sigma, USA).\n(§1) Experimental methods: PGY-sRNA-6-FAM was dissolved in 100 μl water, mixed with 4 μl lipid, and prepared by the boiling method. Then the mixture was dropped into A549 cells, and after 6 hours of co-incubation, the samples were washed three times with PBS, fixed with 4% paraformaldehyde, washed three times with PBS, stained with Alexa Fluor® 488 phalloidin for 30 min, washed 3 times with PBS, and stained with DAPI for 5 min, washed with PBS, and then sealed.\nas §1, with “method:” for “methods:”, “water, and” for “water,”, “by” for “by the”, “Then,” for “Then”, “PBS washed,” for “washed with PBS,”"}, "[2]": {"experiment": "In vivo delivery of single-stranded sRNA by single lipid, gavage (Example 11)", "parameters": "species or system C57 mice", "conditions": "10 μL lipid, sRNA 1 nmol each, 12 hours; for delivery of sRNA single-stranded nucleic acid into mouse blood: FIGS. 108, 112-115, oral (gavage), heating method, vs POPC and Lipofectamine RNAiMAX", "procedure": "1. Experimental animals: C57 mice, male, approximately 6 weeks old.\n2. Manufacture of lipid mixture: the prepration was conducted on the basis of a dose of 10 μ1 lipid-1 nmol sRNA per mouse as follows: dissolved 1 nmol of each sRNA in 500 μl DEPC water, added 10 μl of the corresponding lipid, pipette to mix thoroughly, and then naturally cooled down after water bath for 15 min at 90° C., and administered via gavage.\n1) Tissue sampling and extraction of RNA: 6 hours after gavage in mice, took 500 μl of blood from the eyeball, added 1.5 ml Trizol Reagent LS to thoroughly mix and lyse, added 3 ml Trizol Reagent (purchased from Invitrogen) to the tissue samples and homogenized until complete lysis. Tissues sampled: live/stomach/small intestine.\n2) Reverse transcription of sRNA to cDNA: Reverse Transcription Kit (High-Capacity cDNA Reverse Transcription Kits, Applied Biosystems, cat. no. 4368813), was used to reverse transcribe the total RNA to cDNA, and the reverse system was as follows: template RNA (150 ng/μL) 10 μL, 10× RT buffer, 2.0 μL, 25× dNTP Mix (100 mM) 0.8 μL, random primers 2.0 μL, the Multi Scribe™ reverse Transcriptase 1.0 μL, RNase inhibitor 1.0 μL, nuclease-free H2O 3.2 μL. After a brief centrifugation, the reaction was loaded in a PCR reactor. The reaction conditions were as follows: (1) 25° C., 10 min; (2) 37° C., 120 min; (3) 85° C., 5 min; (4) 4° C., termination of the reaction. After the reaction, 20 μL RNase-free ddH2O was added to make up the final volume to 40 μL.\nLightCycler 480 fluorescence quantitative PCR instrumentwas used, and the PCR reaction conditions were: 95° C. , 5 min for pre-denaturation, followed by the PCR amplification cycle: (1) 95° C., 10 s; (2) 55° C., 10 s; (3) 72° C., 20 s; a total of 40 cycles; 40° C. for 10 s in the end to cool down. The forward primer and reverse primer of the amplification reaction were designed and synthesized by Beijing Qing Ke New Industrial Biotechnology Co., Ltd. (U6 F primer: GCGCGTCGTGAAGCGTTC (SEQ ID NO: 23), U6 R primer: GTGCAGGGTCCGAGGT (SEQ ID NO: 24)).\n3) The relative expression amount was calculated by the 2-ΔCt method.\n5) Treatment group of single lipid and nucleic acid mixture: a mixture of 10 μL of single lipid (No. 41) with single-stranded sRNA mixure solution (PGY-sRNA-23, PGY-sRNA-26 and PGY-sRNA-32, 1 nmol each) was treated by heating method and then given to mice via intragastric administration.\n2. 12 hours after intragastric administration, the blood was taken from the eyeball, and various tissues (liver/stomach/small intestine) was sampled. TRIzol was used for full lysis and the RNA was extracted to detect the amount of entry."}, "[3]": {"tested_on": "A549 cells", "experiment": "Flow cytometry detection of the efficiency of nucleic acid delivery by lipid", "assay_type": "cell-based, human", "conditions": "boiling method, 6 hours co-incubation", "procedure": "Experimental materials: A549 cells (purchased from the Cell Center of the Chinese Academy of Medical Sciences), FAM-sRNA (purchased from Ribobio Biotechnology Co., Ltd.), lipid No. 41, Accuri® C6 instrument (purchased from BD, USA).\nExperimental methods: PGY-sRNA-6-FAM was dissolved in 100 μl water, mixed with 4 μl lipid, and prepared by boiling method. Then the mixture was dropped into A549 cells, and after 6 hours of co-incubation, the samples were collected for detection as follows: firstly wash three times with PBS, then digest with trypsin for 3 minutes and remove trypsin, wash with PBS again and then blow down the cells. The detection was performed using Accuri® C6 instrument.\nExperimental Method: PGY-sRNA-6-FAM was dissolved in 100 μl water, and mixed with 4 μl lipid, and prepared into lipid-sRNA mixture by boiling method. Then, the mixture was dropped into A549 cells, and after 6 hours of co-incubation, the samples were collected and washed three times with PBS, then digested with trypsin into single cells, washed with re-suspended with PBS and then blown down for Accuri® C6 instrument detection.\nExperimental Method: FAM-sRNA was dissolved in 100 μl water, and mixed with 4 μl lipid, prepared by boiling method. Then, the lipid-sRNA mixture was dropped into A549 cells, and after 6 hours of co-incubation, the samples were collected and washed three times with PBS, then digested into single cells with trypsin, re-suspended with PBS and then blown down for Accuri® C6 instrument detection."}}, "note": "“Also recorded” adds a separate entry of the source."}
{"compound": "CCCCCCCC/C=C\\CCCCCCCCCCCCCC(=O)O[C@H](COC(=O)CCCCCCCCCCCCCC)COP(=O)(O)OCCN", "note": "[No. 64, 1-pentadecanoyl-2-nervonoyl-sn-glycero-3-phospho-ethanolamine]", "values": [{"measurement": "entry of PGY-sRNA-6-Cy3 observed under confocal microscopy", "setting": "[1]", "result": "could effectively deliver single-stranded RNA into A549 cells"}, {"measurement": "delivery of sRNA single-stranded nucleic acid into mouse blood", "setting": "[2]", "result": "could effectively deliver sRNA single-stranded nucleic acid into mouse blood via oral administration; also recorded: the delivery effect was better than POPC and Lipofectamine RNAiMAX"}, {"measurement": "efficiency of PGY-sRNA-6 single-stranded RNA delivery relative to positive control RNAiMAX (flow cytometry)", "setting": "[3]", "result": "½"}]}
{"compound": "CCCCCC/C=C\\CCCCCCCC(=O)O[C@H](COC(=O)CCCCCCCCCCCCCCC)COP(=O)(O)OCCN", "note": "[No. 38, (2-aminoethoxy) [(2R)-2-[(9Z)-hexadec-9-enoyloxy]-3-(hexadecanoyloxy)propoxy] phosphinic acid]", "values": [{"measurement": "entry of PGY-sRNA-6-Cy3 observed under confocal microscopy", "setting": "[1]", "result": "could effectively deliver double-stranded nucleic acid into A549 cells"}, {"measurement": "delivery of sRNA single-stranded nucleic acid into mouse blood", "setting": "[2]", "result": "could effectively deliver sRNA single-stranded nucleic acid into mouse blood via oral administration; also recorded: the delivery effect was better than POPC and Lipofectamine RNAiMAX"}, {"measurement": "efficiency in delivering PGY-sRNA-6 single-stranded RNA (flow cytometry)", "setting": "[3]; 4 μl lipid", "result": 72.5, "unit": "%"}, {"measurement": "efficiency of PGY-sRNA-6 single-stranded RNA delivery relative to positive control RNAiMAX (flow cytometry)", "setting": "[3]", "result": "close to that of the positive control RNAiMAX"}]}
{"compound": "CCCCCCCC/C=C\\CCCCCCCCCCCC(=O)O[C@H](COC(=O)CCCCCCCCCCCCCCC)COP(=O)(O)OCCN", "note": "[No. 40, (2-aminoethoxy) [(2R)-2-[(13Z)-docos-13-enoyloxy]-3-(hexadecanoyloxy)propoxy] phosphinic acid]", "values": [{"measurement": "entry of PGY-sRNA-6-Cy3 observed under confocal microscopy", "setting": "[1]", "result": "could effectively deliver single-stranded RNA into A549 cells"}, {"measurement": "delivery of sRNA single-stranded nucleic acid into mouse blood", "setting": "[2]", "result": "could effectively deliver sRNA single-stranded nucleic acid into mouse blood via oral administration; also recorded: the delivery effect was better than POPC and Lipofectamine RNAiMAX"}]}
{"compound": "CCCCCCCCCCCCCCCCCCC[C@@H](O)[C@@H](N)CO", "note": "[No. 41, Sphinganine (d22:0)]", "values": [{"measurement": "entry of PGY-sRNA-6-Cy3 observed under confocal microscopy", "setting": "[1]", "result": "could effectively deliver double-stranded nucleic acid into A549 cells"}, {"measurement": "delivery of sRNA single-stranded nucleic acid into mouse stomach", "setting": "[2]; FIG. 109, gavage", "result": "could effectively deliver sRNA single-stranded nucleic acid into the mouse stomach via oral administration to protect sRNA from degradation"}, {"measurement": "delivery of sRNA single-stranded nucleic acid into mouse small intestine", "setting": "[2]; FIG. 110, gavage", "result": "could effectively deliver sRNA single-stranded nucleic acid into the mouse small intestine via oral administration to protect sRNA from degradation"}, {"measurement": "delivery of sRNA single-stranded nucleic acid into mouse liver", "setting": "[2]; FIG. 111, gavage", "result": "could effectively deliver sRNA single-stranded nucleic acid into the mouse liver via oral administration to protect sRNA from degradation"}, {"measurement": "delivery of sRNA single-stranded nucleic acid into mouse blood", "setting": "[2]", "result": "could effectively deliver sRNA single-stranded nucleic acid into the mouse blood via oral administration; also recorded: the delivery effect was better than POPC and Lipofectamine RNAiMAX"}, {"measurement": "efficiency in delivering PGY-sRNA-6 double-stranded RNA (flow cytometry)", "setting": "[3]; 4 μl lipid", "result": 96.7, "unit": "%"}, {"measurement": "efficiency in delivering PGY-sRNA-6 single-stranded RNA (flow cytometry)", "setting": "[3]; 4 μl lipid", "result": 94.1, "unit": "%"}]}
